{"source": "patent US10751356B2", "about": "“Compositions and methods for transient up-regulation of Myc in B-cell lymphomas for enhancing P53 independent apoptotic responses to chemotherapy” (THE CHILDREN'S HOSPITAL OF PHILADELPHIA, priority 2013, dated 2020)", "key": {"Myc/p53ER™ cells": {"tested_on": "Myc/p53ER™ cells", "test": "Apoptosis of Myc/p53ER B-lymphoma cells (FIGS. 1-3)", "format": "cell-based, mice", "source_text": "Because many Myc-driven tumors are defective for p53 activity, we sought to determine whether transient up-regulation of Myc also increases cell death in response to chemotherapeutic drugs in a p53-deficient background. For this purpose, we used B-lymphoma cells isolated from bone marrows of p53ER™ knock-in mice and subsequently transduced with a Myc-expressing retrovirus (2,3). This inducible system allowed us to distinguish between p53-dependent (cells treated with tamoxifen) and independent (no tamoxifen added) cell death. Additionally, instead of modulating Myc levels through miRNA inhibitors, which currently have limited clinical utility, we increased Myc stability with a small molecule inhibitor of GSK3β, which promotes proteosomal degradation of Myc. […] To validate this effect in a more relevant setting, we inhibited GSK3β in various Burkitt's lymphoma cell lines and achieved consistent up-regulation of Myc."}, "Myc": {"tested_on": "Myc", "test": "Myc stabilization in B lymphoma cell lines with WT or mutant Myc-Thr58 treated with CHIR-99021 (FIG. 7)", "format": "cell-based", "details": "B lymphoma cell lines with WT-Myc-Thr58 or Mut-Myc-Thr58, treated for indicated periods of time", "method": "FIG. 7: Stabilization of Myc by GSK3-inhibitors requires retention of the Myc-Threonine 58 residue: B lymphoma cell lines with WT-Myc-Thr58 (left panel) or Mut-Myc-Thr58 (right panel) were treated with CHIR-99021 for indicated periods of time.\nAs discussed above, treatment of Ramos cells [mutant for p53 and wild type for Myc (intact Threonine-58)] with GSK3-inhibitors increases the apoptotic response to drugs used to treat B cell lymphomas and leukemias within the CHOP-chemotherapeutic regimen: vincristine and doxorubicin. In our model, GSK3 inhibitors prevent phosphorylation of Myc at its Thr-58 residue by GSK3, inhibiting Myc degradation and inducing a transient stabilization and increase in the amount of the Myc protein. It has previously been shown that Myc-Thr58 is a hot spot for mutations in Burkitt's Lymphoma (Smith-Sorensen et al, JBC 1996), and when Myc-Thr58 is altered, the effect of transient stabilization induced by GSK3-inhibitors is lost (FIG. 7). Thus, cooperation of GSK3-inhibitors and chemotherapeutic drugs require retention of the Myc-Threonine-58 residue."}, "Ramos cells": {"tested_on": "Ramos cells", "test": "Yo-Pro flow cytometry of Ramos cells, apoptotic response to TRAIL (FIG. 8)", "format": "cell-based, human", "details": "Ramos cells pre-treated with CHIR99021 for 2 hours followed by 5 h of TRAIL", "method": "Ramos cells where left untreated (top-left panel), treated with TRAIL for 5 h (top-right panel), treated with CHIR99021 alone (bottom-left panel) or pre-treated with CHIR99021 for 2 hours followed by 5 h of TRAIL (bottom-right panel). Percentage of death cells was measured by incorporation of the nuclear staining Yo-Pro. Percentages of living and apoptotic cells are shown in the M4 and M5 gates respectively. […] TRAIL engages the extrinsic apoptotic pathway, activating Caspase-8, and is currently in clinical trials for the treatment of different oncological malignancies (reviewed in Stuckey and Shah, Trends in Mol Med 2013)."}, "Raji cells [1]": {"tested_on": "Raji cells", "test": "Immunoblotting of Raji cells treated with TRAIL with or without CHIR-99021 (FIG. 9A)", "format": "cell-based, human", "method": "(§1) Raji cells were treated with indicated concentrations of TRAIL for 16 h in the presence or absence of CHIR-99021. (FIG. 9A) Immunoblotting with antibodies to detect cleavage of PARP and caspase-8, as well as Myc, beta-catenin and loading controls Tutbulin, Actin and GAPDH. (FIG. 9B) Caspase-3/7 activity were measured using the bioluminescent-based Caspase-3/7 Glo Kit (Promega). Fold increase in caspase activities relative to untreated cells, are shown for cells treated with TRAIL alone (light grey bars) or with TRAIL and CHIR-99021 (dark grey bars).\n(§2) This finding is relevant since, as mentioned above, Threonine-58 is a hot spot for mutations in Burkitt's lymphoma (Smith-Sorensen et al, JBC 1996)."}, "Raji cells [2]": {"tested_on": "Raji cells", "test": "Caspase-3/7 Glo activity in Raji cells treated with TRAIL with or without CHIR-99021 (FIG. 9B)", "format": "cell-based, human", "details": "increasing concentrations of TRAIL in presence or absence of CHIR-99021", "method": "as §1, §2"}}}
{"compound": "COc1cccc2c1C(=O)c1c(O)c3c(c(O)c1C2=O)C[C@@](O)(C(=O)CO)C[C@@H]3O[C@H]1C[C@H](N)[C@H](O)[C@H](C)O1", "note": "[doxorubicin]", "values": [{"measurement": "cell killing / apoptosis", "setting": "Myc/p53ER™ cells; absence of active p53 (no tamoxifen)", "value": "cell killing was rather inefficient"}]}
{"compound": "Cc1c[nH]c(-c2cnc(NCCNc3ccc(C#N)cn3)nc2-c2ccc(Cl)cc2Cl)n1", "note": "[CHIR-99021, 6-{2-[4-(2,4-dichlorophenyl)-5-(4-methyl-1H-imidazol-2-yl)-pyrimidin-2-ylamino]ethyl-amino}nicotinonitrile]", "values": [{"measurement": "stabilization of Myc", "setting": "Myc", "value": "induces stabilization of Myc only when the Myc-Thr-58 residue is retained"}, {"measurement": "apoptotic response to TRAIL (percentage of dead cells by Yo-Pro)", "setting": "Ramos cells", "value": "increases the apoptotic response to TRAIL"}, {"measurement": "cleaved caspase 8 and cleaved PARP by immunoblotting", "setting": "Raji cells [1]; Raji cells pre-treated with CHIR-99021 followed by TRAIL vs TRAIL only", "value": "increase in the amount of cleaved caspase 8 and cleaved PARP"}, {"measurement": "apoptotic response to TRAIL", "setting": "Raji cells [1]; Raji cells, TRAIL for 16 h in presence or absence of CHIR-99021", "value": "increases the apoptotic response to TRAIL"}, {"measurement": "levels of beta-catenin", "setting": "Raji cells [1]; Raji cells, immunoblotting", "value": "increased levels of beta-catenin"}, {"measurement": "levels of mutant Myc", "setting": "Raji cells [1]; Raji cells, immunoblotting", "value": "remain constant"}, {"measurement": "cell death with TRAIL and CHIR-99021", "setting": "Raji cells [1]; Raji cells, no functional p53 and mutant Myc-thr58", "value": "killed Raji cells"}, {"measurement": "caspase 3 activity", "setting": "Raji cells [2]", "value": "higher levels of caspase-3 activity"}]}
{"compound": "CC/C(=C(\\c1ccccc1)c1ccc(OCCN(C)C)cc1)c1ccccc1", "note": "[tamoxifen]", "values": [{"measurement": "apoptosis by activation of p53", "setting": "Myc/p53ER™ cells; tamoxifen added, without doxorubicin or modulation of Myc", "value": "sufficient to induce robust apoptosis"}]}
